Measured values: PubChem BioAssay AID330 (DTP/NCI, 2004)
Several values for one entry are separate records, joined by “and”; a condition that tells them apart may be missing. Identical values can stand only once. Inconclusive results and toxic doses are left out. The calls were made as follows: active = survival T/C of 150% or more; inactive = T/C below 125% in these data.

System: P388 leukemia ip, CD2F1 mice, survival T/C
Assay: NCI In Vivo Anticancer Drug Screen. Data for tumor model P388 Leukemia (intraperitoneal) in CD2F1 (CDF1) mice
Conditions: endpoint: median survival time, higher = longer survival
Method in brief: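 Mice carrying the transplanted tumor received test compound or vehicle. Survival was recorded in each group, and the value is the treated-group measurement divided by that of the vehicle-treated control group.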

[1] = dose: 50.0 mg/kg/injection, schedule: Q01DX009 (ip), vehicle: Klucel (hydroxypropylcellulose) (HPC)
[2] = dose: 100.0 mg/kg/injection, schedule: Q01DX009 (ip), vehicle: Klucel (hydroxypropylcellulose) (HPC)
[3] = dose: 200.0 mg/kg/injection, schedule: Q01DX009 (ip), vehicle: Klucel (hydroxypropylcellulose) (HPC)
[4] = dose: 120.0 mg/kg/injection, schedule: Q01DX005 (ip), vehicle: Klucel (hydroxypropylcellulose) (HPC)
[5] = dose: 50.0 mg/kg/injection, schedule: Q01DX001 (ip), vehicle: saline
[6] = dose: 50.0 mg/kg/injection, schedule: Q01DX005 (ip), vehicle: saline with Tween-80
[7] = dose: 100.0 mg/kg/injection, schedule: Q01DX005 (ip), vehicle: saline with Tween-80
[8] = dose: 200.0 mg/kg/injection, schedule: Q01DX005 (ip), vehicle: saline with Tween-80
[9] = dose: 60.0 mg/kg/injection, schedule: Q01DX005 (ip), vehicle: saline with Tween-80
[10] = dose: 120.0 mg/kg/injection, schedule: Q01DX005 (ip), vehicle: saline with Tween-80
[11] = dose: 240.0 mg/kg/injection, schedule: Q01DX005 (ip), vehicle: saline with Tween-80

Measured: T/C

CN1CCCC(OC(=O)Oc2ccccc2)C1 (configuration not stated)
inactive: dose: 50.0 mg/kg/injection, schedule: Q01DX001 (ip), vehicle: other 101 % of control | dose: 100.0 mg/kg/injection, schedule: Q01DX001 (ip), vehicle: other 100 % of control | dose: 200.0 mg/kg/injection, schedule: Q01DX001 (ip), vehicle: other 102 % of control | dose: 400.0 mg/kg/injection, schedule: Q01DX001 (ip), vehicle: other 99 % of control

CCCSc1nc2ccc(N=Cc3ccccc3O)cc2s1
inactive: [1] 97 % of control | [2] 90 % of control | [3] 90 % of control

Cc1nc(N)[nH]c(=O)c1CCCC#N
inactive: dose: 60.0 mg/kg/injection, schedule: Q01DX005 (ip), vehicle: Klucel (hydroxypropylcellulose) (HPC) 105 % of control | [4] 108 % of control

O=S(=O)(n1ccnc1)C(F)(F)F
inactive: dose: 12.5 mg/kg/injection, schedule: Q01DX001 (ip), vehicle: saline 101 % of control | dose: 25.0 mg/kg/injection, schedule: Q01DX001 (ip), vehicle: saline 96 % of control | [5] 96 % of control

COC(=O)[C@H]1[C@H]2C[C@@H]3c4[nH]c5cc(OC)ccc5c4CCN3C[C@H]2C[C@@H](OC(=O)c2ccc(N)cc2)[C@@H]1OC
inactive: [6] 97 % of control | [7] 87 % of control | [8] 94 % of control

C=C(C)CCP(=S)(OCC)OCC
inactive: [9] 102 % of control | [10] 101 % of control | [11] 100 % of control

CS/C(=N\N=C(/C)c1ccccn1)SS/C(=N/N=C(\C)c1ccccn1)SC
inactive: dose: 12.5 mg/kg/injection, schedule: Q01DX005 (ip), vehicle: saline + Tween-80 + alcohol 98 % of control | dose: 25.0 mg/kg/injection, schedule: Q01DX005 (ip), vehicle: saline + Tween-80 + alcohol 97 % of control | dose: 50.0 mg/kg/injection, schedule: Q01DX005 (ip), vehicle: saline + Tween-80 + alcohol 101 % of control and 103 % of control | dose: 100.0 mg/kg/injection, schedule: Q01DX005 (ip), vehicle: saline + Tween-80 + alcohol 111 % of control

C/C=C(\C)C(=O)OC1C2C(C)=CC(O)C(O)C2(C)C2C3(O)OCC24C1OC(=O)C(O)C4C(C)C3O (configuration not stated)
inactive: dose: 2.5 mg/kg/injection, schedule: Q01DX005 (ip), vehicle: Klucel (hydroxypropylcellulose) (HPC) 108 % of control | dose: 5.0 mg/kg/injection, schedule: Q01DX005 (ip), vehicle: Klucel (hydroxypropylcellulose) (HPC) 102 % of control | dose: 10.0 mg/kg/injection, schedule: Q01DX005 (ip), vehicle: Klucel (hydroxypropylcellulose) (HPC) 100 % of control | dose: 20.0 mg/kg/injection, schedule: Q01DX005 (ip), vehicle: Klucel (hydroxypropylcellulose) (HPC) 105 % of control

O=c1c2ccccc2nc2n1CCc1c-2[nH]c2ccccc12
inactive: dose: 3.75 mg/kg/injection, schedule: Q01DX009 (ip), vehicle: saline with Tween-80 93 % of control | dose: 7.5 mg/kg/injection, schedule: Q01DX009 (ip), vehicle: saline with Tween-80 98 % of control | dose: 15.0 mg/kg/injection, schedule: Q01DX009 (ip), vehicle: saline with Tween-80 93 % of control

NNc1cccc(C(F)(F)F)c1
inactive: dose: 12.5 mg/kg/injection, schedule: Q01DX009 (ip), vehicle: saline with Tween-80 100 % of control | dose: 25.0 mg/kg/injection, schedule: Q01DX009 (ip), vehicle: saline with Tween-80 90 % of control | dose: 25.0 mg/kg/injection, schedule: Q04DX003 (ip), vehicle: saline with Tween-80 100 % of control | dose: 50.0 mg/kg/injection, schedule: Q01DX009 (ip), vehicle: saline with Tween-80 95 % of control | dose: 50.0 mg/kg/injection, schedule: Q04DX003 (ip), vehicle: saline with Tween-80 105 % of control | dose: 100.0 mg/kg/injection, schedule: Q04DX003 (ip), vehicle: saline with Tween-80 100 % of control

COc1ccc2c(ccc[n+]2C)c1
inactive: dose: 5.0 mg/kg/injection, schedule: Q01DX009 (ip), vehicle: saline with Tween-80 100 % of control | dose: 10.0 mg/kg/injection, schedule: Q01DX009 (ip), vehicle: saline with Tween-80 110 % of control | dose: 20.0 mg/kg/injection, schedule: Q01DX009 (ip), vehicle: saline with Tween-80 110 % of control

C[As](C)[Se]CC1OC2OC(C)(C)OC2C2OC(C)(C)OC12 (configuration not stated)
inactive: [1] 89 % of control | [2] 90 % of control | [3] 92 % of control

CC(C)(C)OC(=O)NC(Cc1ccc(OCc2c(Cl)cccc2Cl)cc1)C(=O)O (configuration not stated)
inactive: [6] 104 % of control | [7] 100 % of control | [8] 100 % of control

CC(=O)NNc1ccc(Cl)cc1[N+](=O)[O-]
inactive: [1] 96 % of control | [2] 101 % of control

O=C1C2=C(Nc3cc([N+](=O)[O-])ccc3N2)OC1c1ccc2c(c1)OCO2 (configuration not stated)
inactive: dose: 1.87 mg/kg/injection, schedule: Q01DX005 (ip), vehicle: Klucel (hydroxypropylcellulose) (HPC) 89 % of control | dose: 3.75 mg/kg/injection, schedule: Q01DX005 (ip), vehicle: Klucel (hydroxypropylcellulose) (HPC) 90 % of control | dose: 7.5 mg/kg/injection, schedule: Q01DX005 (ip), vehicle: Klucel (hydroxypropylcellulose) (HPC) 90 % of control | dose: 15.0 mg/kg/injection, schedule: Q01DX005 (ip), vehicle: Klucel (hydroxypropylcellulose) (HPC) 88 % of control | dose: 30.0 mg/kg/injection, schedule: Q01DX005 (ip), vehicle: Klucel (hydroxypropylcellulose) (HPC) 87 % of control | [4] 89 % of control and 90 % of control | dose: 240.0 mg/kg/injection, schedule: Q01DX005 (ip), vehicle: Klucel (hydroxypropylcellulose) (HPC) 93 % of control

CC(C)=NNC(=O)C1CCN1Cc1ccccc1 (configuration not stated)
inactive: [5] 106 % of control | dose: 100.0 mg/kg/injection, schedule: Q01DX001 (ip), vehicle: saline 106 % of control | dose: 200.0 mg/kg/injection, schedule: Q01DX001 (ip), vehicle: saline 111 % of control | dose: 400.0 mg/kg/injection, schedule: Q01DX001 (ip), vehicle: saline 106 % of control

CS(=O)(=O)c1noc(N)n1
inactive: dose: 50.0 mg/kg/injection, schedule: Q01DX005 (ip), vehicle: saline 115 % of control | dose: 100.0 mg/kg/injection, schedule: Q01DX005 (ip), vehicle: saline 113 % of control | dose: 200.0 mg/kg/injection, schedule: Q01DX005 (ip), vehicle: saline 115 % of control

O=C(NS(=O)C1C=CC2CCCC21)OC1CCCCC1c1ccccc1 (configuration not stated)
inactive: dose: 50.0 mg/kg/injection, schedule: Q01DX005 (ip), vehicle: Klucel (hydroxypropylcellulose) (HPC) 109 % of control | dose: 100.0 mg/kg/injection, schedule: Q01DX005 (ip), vehicle: Klucel (hydroxypropylcellulose) (HPC) 100 % of control | dose: 200.0 mg/kg/injection, schedule: Q01DX005 (ip), vehicle: Klucel (hydroxypropylcellulose) (HPC) 97 % of control

CCCSCCCC(=O)O
inactive: [1] 100 % of control | [2] 100 % of control | [3] 104 % of control

Cc1ccc([N+](=O)[O-])cc1NC(=O)Nc1onc(C)c1C
inactive: [9] 87 % of control | [10] 93 % of control | [11] 88 % of control

O=C(Nc1ccccc1C(F)(F)F)N(CCO)C1CCCCC1
inactive: [9] 103 % of control | [10] 103 % of control | [11] 103 % of control
